Measured values: patent US6756368B1, “Use of cobalt chelates for treating or preventing virus infection” (The Trustees of Columbia University in the City of New York, priority 1999, dated 2004)
Entries after “also recorded” stand apart in the source; their conditions may differ. Like-named read-outs stand apart in the source and are kept apart here.

Tests used:
influenza virus = assay: Influenza virus plaque assay on MDCK cells; format: cell-based, influenza virus strain PR8; settings: magnitude not quantifiable
HSV-1 and 2 = settings: cited from earlier work
[1] = test system: adenovirus serotype 2 (Ad2); assay: Fluorescence focus assay, Ad2 on A549 cells; format: cell-based; settings: for Percent inhibition, Adenovirus: Ad2, A549
Protocol: A549 or 293 cell monolayers were infected with Ad2 or Ad-CMV-null at 0.1 fluorescence focus units (FFUs) per cell for 2 h in 2% BCS DMEM in the presence and absence of 50 μg/ml CTC-96. At 29 h postinfection the plates were washed twice with PBS and fixed with methanol for 4 min at room temperature. Cells were washed twice with PBS, incubated in 500 μl 1:100 rabbit polyclonal anti-adenovirus serum in PBS for 30 min at room temperature and washed with PBS. Plates were then incubated in 500 μl 1:40 goat anti-rabbit IgG conjugated FITC in PBS. Foci were visualized using a Leitz Dialux microscope with an optical system for the selective visualization of FITC and then counted.
A549s were plated on 35 mm dishes at 8×10^5 cell/plate in 10% FBS DMEM
added 19.25 μl stock to 50 μl total of each respective media (+/− 0, 5, 25 or 50 μg/ml CTC96)
After 2 h-added 3 ml of each respective media
Incubated @37° C. for 28 h (total)

[2] = test system: vesicular stomatitis virus (VSV); format: cell-based, VSV strain Indiana
HSV-1 [3] = format: cell-based, HSV-1 Glasgow strain 17; settings: CTC-96 added at 16 hpi, virus harvested 4 hours later
Hela cells = settings: 100 μg/ml, 2 days
HSV-1 [4] = assay: HSV-1 DNA replication in the presence of drug (Southern/slot blot); format: cell-based, HSV-1 Glasgow strain 17
Protocol: (i) DNA preparation. Vero cells infected with MOI of 5 were infected and maintained in the presence and absence of 50 μg/ml CTC-96. Infected cells were harvested by freezing (−80° C.) at the indicated times postinfection. Total infected cell DNA was extracted as described (54).
(ii) Slot blot analysis. Slot blot analysis was performed as previously described (55). Briefly, equal amounts of nuclear or cytoplasmic infected cell DNAs were blotted onto GeneScreen Plus using a MINIFOLD II Slot Blot System (Schleicher and Schuell, Keene, N.H.) and cross-linked with a Stratalinker 2400 (Stratagene, La Jolla, Calif.) using UV-irradiation. A 4.5 kB SalI-DdeI fragment from the α4 gene of HSV-1 which had been labeled with [α-32P]dCTP (NEN Life Sciences Products, Boston, Mass.) by random priming (Boehringer Mannheim, Indianapolis, Ind.) was hybridized to the nuclear and cytoplasmic DNAs and washed as specified by the manufacturer. Bands were visualized using autoradiography.
A series of experiments were initiated to determine the point in the replication cycle where CTC-96 acts. Our first study examined the effects of drug on replication of virus DNA. Cells were infected at an moi of 5 in the presence of the absence of drug and harvested by trypsinization at 1 and 9 hr post infection. Virus DNA was extracted from cells by selective salt precipitation and the amount of virus-specific DNA was assayed after transfer to a nitrocellulose membrane by Southern blot hybridization using a phophorimager to quantitate signal.
Cells were infected and at various intervals drug was added and left on the infected cell cultures until 24 hr pi. At this time samples were harvested and DNA extracted and analyzed as described above. […] By 12 hr post infection the bulk of DNA replication is complete as there is only a small difference between the hybridization signal generated in an untreated 24 hr sample when compared with a sample treated at 12 hr and analyzed at 24 hr post infection (FIG. 13).

HSV-1 [5] = assay: Fractionation and in situ localization of virus DNA; format: cell-based, HSV-1 Glasgow strain 17

Structure (SMILES): CC(/C=C(/C)[O-])=NCCN=C(C)/C=C(/C)[O-].Cc1ncc[nH]1.Cc1ncc[nH]1.[Br-].[Co+3] [CTC-96]
- effect on influenza virus infection (influenza virus): positive virus inhibitory effect; also recorded: effective against influenza virus infection
- HSV-1 production in tissue culture (HSV-1 and 2): effective in inhibiting HSV-1 production
- rank among the CTC compounds against HSV (HSV-1 and 2; comparison of several CTC complexes): least cytotoxic and most effective of the CTC compounds; also recorded: most potent inhibitor of HSV-1 in tissue culture and in the rabbit eye model
- average foci per field ([1]; 25 μg/ml, Plate 1): 26 = 3.9
- total foci counted ([1]; 25 μg/ml, Plate 1): 102
- average foci per field ([1]; 25 μg/ml, Plate 2): ? = 3.1
- total foci counted ([1]; 25 μg/ml, Plate 2): 109
- average foci per field ([1]; 50 μg/ml, Plate 1): 47 = 1.6
- total foci counted ([1]; 50 μg/ml, Plate 1): 73
- average foci per field ([1]; 50 μg/ml, Plate 2): 46 = 1.5
- total foci counted ([1]; 50 μg/ml, Plate 2): 70
- % Inhibition ([1]; Adenovirus (2), A549, 50 μg/ml of CTC-96, fluorescence focus assay): 36%
- Percent inhibition, Adenovirus ([1]; CTC-96 25 μg/ml): 18%
- Percent inhibition, Adenovirus ([1]; CTC-96 50 μg/ml): 64%
- inhibition of VSV ([2]; 50 μg/ml, Vero cells): 100%
- % Inhibition ([2]; VSV (Indiana), Vero, 50 μg/ml of CTC-96, plaque assay): 100%
- VSV plaques ([2]; dilution −5, 50 μg/ml CTC96): 0
- VSV plaques ([2]; dilution −6, 50 μg/ml CTC96): 0
- VSV plaques ([2]; dilution −7, 50 μg/ml CTC96): 0
- virus titers (HSV-1 [3]): negligible drop in virus titers
- state of the HeLa cells (Hela cells): dead
- virus DNA associated with infected cells at 1 hr post infection, versus no drug (HSV-1 [4]; 50 μg/ml from onset, harvest 1 hpi): no detectable difference; also recorded: equivalent amount of virus DNA
- virus DNA replication on temporal addition of drug (HSV-1 [4]; drug added at various times post infection, harvest 24 hr pi): increasingly more virus DNA replication as drug is added at later times post infection; also recorded: the amount of virus DNA replication increased
- increase in accumulation of virus DNA from 1 to 9 hr post infection (HSV-1 [4]; drug treated, moi 5): barely a two-fold increase
- nuclear accumulation of 3H labeled HSV-1 DNA (autoradiography) (HSV-1 [5]): prevented the nuclear accumulation
- virus DNA in nuclear and cytoplasmic fractions (HSV-1 [5]): very little detectable virus DNA in either fraction; also recorded: no significant increase in nuclear associated HSV-1 specific DNA
